Laboratory results from ChEMBL document CHEMBL5584202, “Identification of benzothiazoles as novel PCSK9 inhibitors” (Bioorg Med Chem Lett, 2024).
Calls of active or inactive are those of the source. No cut-off for these calls is given here.

What was measured:
[1] = tested on: HepG2; test: Downregulation of PCSK9 protein level in human HepG2 cells by Western blotting analysis; type: functional, cell-based
[2] = tested on: HepG2; test: Downregulation of LDLR protein level in human HepG2 cells by Western blotting analysis; type: functional, cell-based

For `CC(C)(C)OC(=O)N1CCN(Cc2ccc3nc(NC(=O)c4ccc(S(=O)(=O)NCCC#N)cc4)sc3c2)CC1`, the Activity [1] was “Active” and the Activity [2] was “Active”.
